Like-named read-outs stand apart in the source and are kept apart here.
Experiments:
Assay type in all cases: biochemical
HDAC11 = molecular target: T1, HDAC11 (Homo sapiens, UniProt Q96DB2); experiment: HDAC enzyme activity test, HDAC11; settings: Table 11, eleven HDAC isozymes; read-out: Inhibition ability (IC50) against HDAC11
T1 sequence (Q96DB2 1-347): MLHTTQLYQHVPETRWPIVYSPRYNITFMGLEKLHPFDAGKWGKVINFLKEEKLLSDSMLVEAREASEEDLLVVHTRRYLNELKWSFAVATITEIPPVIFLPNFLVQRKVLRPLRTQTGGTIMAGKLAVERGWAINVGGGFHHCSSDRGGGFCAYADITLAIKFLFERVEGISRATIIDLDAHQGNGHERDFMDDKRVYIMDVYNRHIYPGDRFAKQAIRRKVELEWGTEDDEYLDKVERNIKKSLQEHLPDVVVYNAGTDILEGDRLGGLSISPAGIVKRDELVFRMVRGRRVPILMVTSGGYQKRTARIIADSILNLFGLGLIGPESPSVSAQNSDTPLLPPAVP
Experimental: (§1) Then, 0.3 μg of enzyme and 10 μM of substrate per well were added, reacted at 30° C. for 60 minutes. Thereto, Fluor de Lys® Developer II (BML-KI176) was added and reacted for 30 minutes. […] From the data, the respective IC50 were calculated by GraphPad Prism 4.0 program.

Human recombinant HDAC1 = molecular target: T2, Human recombinant HDAC1 (Homo sapiens, UniProt Q13547); experiment: HDAC enzyme activity test, HDAC1
T2 construct: purchased Enzo Life Science Co. (named for the kit; assigned to the enzyme from the BML- catalogue prefix) BML-SE456
Experimental: as §1

human recombinant HDAC6 = molecular target: T3, human recombinant HDAC6 (Homo sapiens, UniProt Q9UBN7); experiment: HDAC enzyme activity test, HDAC6; settings: for Selectivity for HDAC6, HD1/HD6: ratio HDAC1 IC50 / HDAC6 IC50
T3 construct: purchased Calibiochem Co. (so in the source) 382180
T3 sequence (Q9UBN7 1-1215): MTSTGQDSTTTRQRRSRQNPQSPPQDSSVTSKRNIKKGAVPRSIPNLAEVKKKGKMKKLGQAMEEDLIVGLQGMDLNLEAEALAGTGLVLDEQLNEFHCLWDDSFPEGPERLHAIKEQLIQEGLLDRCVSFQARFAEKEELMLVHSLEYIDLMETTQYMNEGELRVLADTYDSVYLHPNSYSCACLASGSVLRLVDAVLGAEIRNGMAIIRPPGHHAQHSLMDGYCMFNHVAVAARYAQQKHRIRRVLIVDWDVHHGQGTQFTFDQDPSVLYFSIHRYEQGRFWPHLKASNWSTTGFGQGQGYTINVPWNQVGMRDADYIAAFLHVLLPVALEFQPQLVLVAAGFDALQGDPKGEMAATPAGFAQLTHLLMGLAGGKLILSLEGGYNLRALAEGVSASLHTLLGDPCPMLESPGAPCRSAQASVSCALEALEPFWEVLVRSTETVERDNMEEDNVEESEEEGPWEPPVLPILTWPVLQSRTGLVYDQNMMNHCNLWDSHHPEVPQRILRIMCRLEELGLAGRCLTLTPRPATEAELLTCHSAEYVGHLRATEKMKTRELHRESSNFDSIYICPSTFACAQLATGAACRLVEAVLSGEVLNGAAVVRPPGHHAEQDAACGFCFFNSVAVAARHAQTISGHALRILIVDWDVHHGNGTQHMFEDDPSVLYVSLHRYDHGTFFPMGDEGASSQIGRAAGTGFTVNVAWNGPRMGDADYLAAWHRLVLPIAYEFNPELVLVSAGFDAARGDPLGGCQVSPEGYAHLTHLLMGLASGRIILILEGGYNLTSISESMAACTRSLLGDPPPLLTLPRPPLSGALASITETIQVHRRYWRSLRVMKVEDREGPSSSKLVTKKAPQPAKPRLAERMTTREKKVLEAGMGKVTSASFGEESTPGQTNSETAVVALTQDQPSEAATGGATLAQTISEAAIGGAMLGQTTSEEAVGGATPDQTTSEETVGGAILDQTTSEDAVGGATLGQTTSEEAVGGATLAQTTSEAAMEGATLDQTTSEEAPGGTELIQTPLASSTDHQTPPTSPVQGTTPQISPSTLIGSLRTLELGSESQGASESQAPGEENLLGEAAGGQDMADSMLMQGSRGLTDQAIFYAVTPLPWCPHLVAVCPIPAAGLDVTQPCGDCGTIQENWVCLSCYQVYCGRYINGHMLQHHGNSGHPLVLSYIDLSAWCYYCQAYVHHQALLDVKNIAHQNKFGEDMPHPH
Experimental: as §1

HDAC8 = molecular target: T4, HDAC8 (Homo sapiens, UniProt Q9BY41); experiment: HDAC enzyme activity test, HDAC8; settings: Table 11, eleven HDAC isozymes; read-out: Inhibition ability (IC50) against HDAC8
T4 sequence (Q9BY41 1-377): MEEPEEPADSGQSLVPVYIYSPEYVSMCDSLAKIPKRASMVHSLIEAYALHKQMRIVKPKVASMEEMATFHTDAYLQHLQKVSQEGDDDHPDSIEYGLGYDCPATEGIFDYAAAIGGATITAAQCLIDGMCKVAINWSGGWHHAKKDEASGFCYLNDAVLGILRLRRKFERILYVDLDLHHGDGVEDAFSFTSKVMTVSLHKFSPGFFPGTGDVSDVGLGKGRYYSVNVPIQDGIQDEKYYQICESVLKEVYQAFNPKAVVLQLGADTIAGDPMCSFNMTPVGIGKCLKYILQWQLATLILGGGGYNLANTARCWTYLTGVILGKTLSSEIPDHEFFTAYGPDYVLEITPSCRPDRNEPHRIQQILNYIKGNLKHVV
Experimental: as §1

HDAC9 = HDAC9 (Homo sapiens, UniProt Q9UKV0); experiment: HDAC enzyme activity test, HDAC9; settings: Table 11, eleven HDAC isozymes; read-out: Inhibition ability (IC50) against HDAC9
Experimental: as §1

[1] = Table 12, read-out: Inhibition ability (IC50) HDAC1
[2] = Table 11, eleven HDAC isozymes, read-out: Inhibition ability (IC50) against HDAC6
[3] = Table 12, read-out: Inhibition ability (IC50) HDAC6

T2 sequence (Q13547 whole entry): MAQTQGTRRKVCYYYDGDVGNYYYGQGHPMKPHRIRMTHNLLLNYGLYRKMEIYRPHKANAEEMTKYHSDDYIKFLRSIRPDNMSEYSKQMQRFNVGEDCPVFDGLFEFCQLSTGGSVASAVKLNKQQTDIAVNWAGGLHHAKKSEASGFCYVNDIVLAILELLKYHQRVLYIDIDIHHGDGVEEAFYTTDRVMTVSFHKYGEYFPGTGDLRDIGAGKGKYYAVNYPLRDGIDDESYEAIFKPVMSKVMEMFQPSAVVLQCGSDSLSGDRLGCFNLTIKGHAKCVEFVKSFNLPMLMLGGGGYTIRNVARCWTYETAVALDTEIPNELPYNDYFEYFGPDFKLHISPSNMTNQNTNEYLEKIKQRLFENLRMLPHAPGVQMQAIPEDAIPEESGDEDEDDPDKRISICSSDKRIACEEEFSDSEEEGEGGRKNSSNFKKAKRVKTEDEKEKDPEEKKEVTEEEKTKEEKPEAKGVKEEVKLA
Sequence of HDAC9 (Q9UKV0 whole entry, species assumed): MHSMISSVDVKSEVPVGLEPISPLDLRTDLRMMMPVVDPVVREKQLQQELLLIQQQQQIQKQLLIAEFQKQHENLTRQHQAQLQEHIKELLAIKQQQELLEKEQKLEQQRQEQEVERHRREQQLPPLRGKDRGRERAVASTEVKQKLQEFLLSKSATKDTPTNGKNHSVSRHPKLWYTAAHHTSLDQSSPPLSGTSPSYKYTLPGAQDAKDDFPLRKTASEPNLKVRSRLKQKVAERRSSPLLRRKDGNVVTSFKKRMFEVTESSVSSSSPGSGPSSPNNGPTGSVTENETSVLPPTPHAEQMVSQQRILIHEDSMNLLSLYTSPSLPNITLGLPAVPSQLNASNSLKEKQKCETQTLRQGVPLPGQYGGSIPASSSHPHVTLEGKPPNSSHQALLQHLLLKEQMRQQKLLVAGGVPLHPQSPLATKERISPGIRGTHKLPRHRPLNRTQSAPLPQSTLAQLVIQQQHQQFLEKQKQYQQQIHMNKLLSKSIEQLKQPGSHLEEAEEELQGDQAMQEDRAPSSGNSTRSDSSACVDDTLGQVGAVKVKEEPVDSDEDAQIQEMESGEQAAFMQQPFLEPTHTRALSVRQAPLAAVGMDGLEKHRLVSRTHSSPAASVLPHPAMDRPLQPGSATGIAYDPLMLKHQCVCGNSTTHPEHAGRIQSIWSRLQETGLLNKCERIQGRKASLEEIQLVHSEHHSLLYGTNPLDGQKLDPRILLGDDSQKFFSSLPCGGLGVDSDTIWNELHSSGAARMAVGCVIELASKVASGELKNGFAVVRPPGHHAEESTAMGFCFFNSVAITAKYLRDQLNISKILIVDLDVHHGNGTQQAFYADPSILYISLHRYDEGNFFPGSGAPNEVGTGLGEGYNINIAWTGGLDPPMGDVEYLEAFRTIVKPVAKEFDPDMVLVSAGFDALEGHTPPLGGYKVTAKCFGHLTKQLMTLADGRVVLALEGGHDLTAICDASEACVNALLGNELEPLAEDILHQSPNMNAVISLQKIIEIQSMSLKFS

CC1(C)CC(=O)c2c(n(Cc3ccc(C(=O)NO)cc3)c3ccccc23)C1 [Compound 19, 4-((2,2-dimethyl-4-oxo-1,2,3,4-tetrahydrocarbazol-9-yl)methyl)-N-hydroxybenzamide]
IC50 (HDAC11): 22200 nM | IC50 (Human recombinant HDAC1; Table 11, eleven HDAC isozymes, read-out: Inhibition ability (IC50) against HDAC1): 18100 nM | IC50 (Human recombinant HDAC1; [1]): 4220 nM | IC50 (human recombinant HDAC6; [2]): 35.3 nM | Selectivity for HDAC6, HD1/HD6 (human recombinant HDAC6; Table 12): 201.8 | IC50 (human recombinant HDAC6; [3]): 20.9 nM | IC50 (HDAC8): 794 nM | IC50 (HDAC9): 30400 nM

CN(CCO)CCN1CCc2c(c3cc(F)ccc3n2Cc2ccc(C(=O)NO)cc2)C1=O [Compound 292, 4-((8-fluoro-2-(2-((2-hydroxyethyl)(methyl)amino)ethyl)-1-oxo-1,2,3,4-tetrahydropyrido[4,3-b]indol-5-yl)methyl)-N-hydroxybenzamide]
IC50 (Human recombinant HDAC1; [1]): 10000 nM | Selectivity for HDAC6, HD1/HD6 (human recombinant HDAC6; Table 12): 781.3 | IC50 (human recombinant HDAC6; [3]): 12.8 nM

O=C(CCCCCCn1c2c(c3cc(F)ccc31)C(=O)CCC2)NO [Compound 325, 7-(3-fluoro-5-oxo-5,6,7,8-tetrahydrocarbazol-9-yl)-N-hydroxyheptanamide]
IC50 (Human recombinant HDAC1; [1]): 93.8 nM | Selectivity for HDAC6, HD1/HD6 (human recombinant HDAC6; Table 12): 31.3 | IC50 (human recombinant HDAC6; [3]): 3 nM

O=C(NO)c1ccc(Cn2c3c(c4ccccc42)C(=O)C(CN2CCCC2)CC3)cc1 (stereo not shown) [Compound 88, N-hydroxy-4-((4-oxo-3-(pyrrolidin-1-ylmethyl)-1,2,3,4-tetrahydrocarbazol-9-yl)methyl)benzamide]
IC50 (Human recombinant HDAC1; [1]): 3970 nM | Selectivity for HDAC6, HD1/HD6 (human recombinant HDAC6; Table 12): 358.7 | IC50 (human recombinant HDAC6; [3]): 11.1 nM

CC1(C)CC(=O)c2c(n(CCCCCC(=O)NO)c3ccc(F)cc23)C1 [Compound 55, 6-(6-fluoro-2,2-dimethyl-4-oxo-1,2,3,4-tetrahydrocarbazol-9-yl)-N-hydroxyhexanamide]
IC50 (Human recombinant HDAC1; [1]): 4080 nM | IC50 (human recombinant HDAC6; [2]): 228 nM | Selectivity for HDAC6, HD1/HD6 (human recombinant HDAC6; Table 12): 72.5 | IC50 (human recombinant HDAC6; [3]): 56.4 nM | IC50 (HDAC8): 507 nM

CCN1CCN(CC2CCc3c(c4ccccc4n3CCCCCC(=O)NO)C2=O)CC1 (stereo not shown) [Compound 206, 6-(3-((4-ethylpiperazin-1-yl)methyl)-4-oxo-1,2,3,4-tetrahydrocarbazol-9-yl)-N-hydroxyhexanamide]
IC50 (Human recombinant HDAC1; [1]): 1200 nM | Selectivity for HDAC6, HD1/HD6 (human recombinant HDAC6; Table 12): 43.5 | IC50 (human recombinant HDAC6; [3]): 27.5 nM

CN1CCN(CCN2CCc3c(c4cc(F)ccc4n3Cc3ccc(C(=O)NO)cc3)C2=O)CC1 [Compound 287, 4-((8-fluoro-2-(2-(4-methylpiperazin-1-yl)ethyl)-1-oxo-1,2,3,4-tetrahydropyrido[4,3-b]indol-5-yl)methyl)-N-hydroxybenzamide]
IC50 (Human recombinant HDAC1; [1]): 8200 nM | Selectivity for HDAC6, HD1/HD6 (human recombinant HDAC6; Table 12): 715.1 | IC50 (human recombinant HDAC6; [3]): 11.5 nM

CN1CCN(CC2C(=O)c3c(n(Cc4ccc(C(=O)NO)cc4)c4ccc(F)cc34)CC2(C)C)CC1 (stereo not shown) [Compound 209, 4-((6-fluoro-2,2-dimethyl-3-((4-methylpiperazin-1-yl)methyl)-4-oxo-1,2,3,4-tetrahydrocarbazol-9-yl)methyl)-N-hydroxybenzamide]
IC50 (Human recombinant HDAC1; [1]): 365 nM | Selectivity for HDAC6, HD1/HD6 (human recombinant HDAC6; Table 12): 148.8 | IC50 (human recombinant HDAC6; [3]): 2.5 nM

O=C(NO)c1ccc(Cn2c3c(c4ccccc42)C(=O)C(CN2CCCCC2)CC3)cc1 (stereo not shown) [Compound 86, N-hydroxy-4-((4-oxo-3-(piperidin-1-ylmethyl)-1,2,3,4-tetrahydrocarbazol-9-yl)methyl)benzamide]
IC50 (Human recombinant HDAC1; [1]): 2840 nM | Selectivity for HDAC6, HD1/HD6 (human recombinant HDAC6; Table 12): 286.1 | IC50 (human recombinant HDAC6; [3]): 9.94 nM

CC1(C)CC(=O)c2c(n(CCCCCC(=O)NO)c3ccc(Br)cc23)C1 [Compound 40, 6-(6-bromo-2,2-dimethyl-4-oxo-1,2,3,4-tetrahydrocarbazol-9-yl)-N-hydroxyhexanamide]
IC50 (Human recombinant HDAC1; [1]): 8880 nM | Selectivity for HDAC6, HD1/HD6 (human recombinant HDAC6; Table 12): 75.5 | IC50 (human recombinant HDAC6; [3]): 117 nM

CC1(C)CC(=O)c2c(n(CCCCCCC(=O)NO)c3ccc(Br)cc23)C1 [Compound 50, 7-(6-bromo-2,2-dimethyl-4-oxo-1,2,3,4-tetrahydrocarbazol-9-yl)-N-hydroxyheptanamide]
IC50 (Human recombinant HDAC1; [1]): 158 nM | Selectivity for HDAC6, HD1/HD6 (human recombinant HDAC6; Table 12): 17.7 | IC50 (human recombinant HDAC6; [3]): 8.95 nM

O=C(NO)c1ccc(Cn2c3c(c4cc(F)ccc42)C(=O)C(CN2CC(F)(F)C2)CC3)cc1 (stereo not shown) [Compound 145, 4-((3-((3,3-difluoroazetidin-1-yl)methyl)-6-fluoro-4-oxo-1,2,3,4-tetrahydrocarbazol-9-yl)methyl)-N-hydroxybenzamide]
IC50 (Human recombinant HDAC1; [1]): 7230 nM | Selectivity for HDAC6, HD1/HD6 (human recombinant HDAC6; Table 12): 925.1 | IC50 (human recombinant HDAC6; [3]): 7.8 nM

Cc1cc2c(n1CCCCCCC(=O)NO)CCCC2=O [Compound 346, N-hydroxy-7-(2-methyl-4-oxo-4,5,6,7-tetrahydroindol-1-yl)heptanamide]
IC50 (Human recombinant HDAC1; [1]): 255 nM | Selectivity for HDAC6, HD1/HD6 (human recombinant HDAC6; Table 12): 10.2 | IC50 (human recombinant HDAC6; [3]): 25 nM

— patent US20140315889A1, “HYDROXAMATE DERIVATIVES FOR HDAC INHIBITOR, AND THE PHARMACEUTICAL COMPOSITION COMPRISING THEREOF” (CHONG KUN DANG PHARMACEUTICAL CORP., priority 2011, published 2014)
